In ChEMBL document CHEMBL1125069, “Synthesis and antitumor activity of 2-beta-D-ribofuranosyloxazole-4-carboxamide (oxazofurin)” (J Med Chem, 1990):

Experiments:
B16 [1] = experiment: In vitro inhibitory activity against B16 murine melanoma cells; b = inactive until a maximum tested concentration of […]; type: functional, cell-based, Mus musculus
HL-60 [2] = experiment: In vitro inhibitory activity against HL-60 human promyelocytic leukemia cells; b = inactive until a maximum tested concentration of […]; type: functional, cell-based
P388 [3] = experiment: In vitro inhibitory activity against P388 murine lymphocytic leukemia cells; b = inactive until a maximum tested concentration of 2.5(10e-4) M
L1210 [4] = experiment: In vitro inhibitory activity against L1210 murine lymphocytic leukemia cells; b = inactive until a maximum tested concentration of […]; type: functional, cell-based, Mus musculus
HL-60 [5] = experiment: In vitro inhibitory activity against HL-60 human promyelocytic leukemia cells; type: functional, cell-based
P388 [6] = experiment: In vitro inhibitory activity against P388 murine lymphocytic leukemia cells; type: functional, cell-based; details: Mus musculus
B16 [7] = experiment: In vitro inhibitory activity against B16 murine melanoma cells; type: functional, cell-based; details: Mus musculus
L1210 [8] = experiment: In vitro inhibitory activity against L1210 murine lymphocytic leukemia cells; type: functional, cell-based; details: Mus musculus
HL-60 [9] = experiment: In vitro inhibitory activity against HL-60 human promyelocytic leukemia cells until a maximum concentration of 4*(10e-3) M; a = inactive until a maximum tested concentration of 4*(10e-3) M; type: functional, cell-based
P388 [10] = experiment: In vitro inhibitory activity against P388 murine lymphocytic leukemia cells; a = inactive until a maximum tested concentration of 4*(10e-3) M; type: functional, cell-based, Mus musculus
L1210 [11] = experiment: In vitro inhibitory activity against L1210 murine lymphocytic leukemia cells; a = inactive until a maximum tested concentration of 4*(10e-3) M; type: functional, cell-based, Mus musculus

IC50 (B16 [1])	IC50 (HL-60 [2])	IC50 (P388 [3])	IC50 (L1210 [4])	IC50 (HL-60 [5])	IC50 (P388 [6])	IC50 (B16 [7])	IC50 (L1210 [8])	IC50 (HL-60 [9])	IC50 (P388 [10])	IC50 (L1210 [11])	Compound
Inactive until max test conc 2.5x10^-4M	Inactive until max test conc 2.5x10^-4M	Inactive until max test conc 2.5x10^-4M	Inactive until max test conc 2.5x10^-4M								NC(=O)c1coc(-c2ccc(CO)o2)n1
				6.1 µM	16.7 µM	0.0162 mM	6.2 µM				NC(=O)c1csc([C@@H]2O[C@H](CO)[C@@H](O)[C@H]2O)n1 [TIAZOFURIN]
						3.02 mM		Inactive until max test conc 4x10^-3M	Inactive until max test conc 4x10^-3M	Inactive until max test conc 4x10^-3M	NC(=O)c1coc([C@@H]2O[C@H](CO)[C@@H](O)[C@H]2O)n1
Inactive until max test conc 2.5x10^-4M	Inactive until max test conc 2.5x10^-4M	Inactive until max test conc 2.5x10^-4M	Inactive until max test conc 2.5x10^-4M								NC(=O)c1nc(-c2ccc(CO)o2)oc1N
